Entries after “also recorded” stand apart in the source; their conditions may differ.

Data set [1] has as its system TgCRND8 mice. The data set is described as follows: Morris Water Maze spatial reference memory test in TgCRND8 mice. It counts as in vivo, mouse. The note with it: six month old TgCRND8 mice, 28 days treatment from 5 months. As to the method:
Mice. […] This initial dosage was chosen based upon the dosage of myo-cyclohexanehexyl (6-18 grams/day/adult or 86-257 mg/Kg/day) that is typically administered to human patients for various psychiatric disorders. […] A cohort of animals (n=10 mice per treatment arm) entered the study at five months of age, and outcomes were then analyzed after one month of treatment. The body weight, coat characteristics and in cage behaviour were monitored. Mannitol was used as a negative control for potential alterations in caloric intake. All experiments were performed according to the Canadian Council on Animal Care guidelines. Behavioural tests: Morris Water Maze testing was performed as previously described. After non-spatial pre-training, mice underwent place discrimination training for 5 days with 4-trials per day, followed by a cued visible platform to rule out general motivational, learning deficits and motor problems, and a probe trial to evaluate memory. […] Open field test for motor activity was preformed as described previously. Duration of walking, pausing and grooming were analyzed as indices of spontaneous locomotor activity. Sensorimotor function was examined with an Economex™ accelerating rotarod (Columbus Instruments, Columbus, Ohio), as described elsewhere. The rod was set to accelerate at a rate of 0.2 r.p.m./s, from an initial, constant speed of 5 r.p.m. Latency to fall was recorded in four daily trials, conducted at 30 min intervals. All mice were trained for seven days before testing. The test day performance score for each animal was obtained by summing its latency to fall over the four trials. Cerebral amyloid burden. Brains were removed and one hemisphere was fixed in 4% paraformaldehyde and embedded in paraffin wax in the mid sagittal plane. To generate sets of systematic uniform random sections, 5 μm serial sections were collected across the entire hemisphere. Sets of sections at 50 μm intervals were used for analyses (10-14 sections/set). Plaques were identified after antigen retrieval with formic acid, and incubation with primary anti-AD antibody (Dako M-0872), followed by secondary antibody (Dako StreptABCcomplex/horseradish kit). End products were visualized with DAB and were counter-stained with luxol fast blue. Amyloid plaque burden was assessed with Leco IA-3001 image analysis software interfaced with Leica microscope and Hitachi KP-M1U CCD video camera. Openlab imaging software (Improvision, Lexington, Mass.) was then used to convert micrographs to binary images for plaque number and plaque area determinations. Vascular amyloid burden was defined as amyloid originating from or surrounding blood vessels and was analysed similarly. Plasma and Cerebral Aβ Content. Hemi-brain samples were homogenized in a buffered sucrose solution, followed by either 0.4% diethylamine/100 mM NaCl for soluble Aβ levels or cold formic acid for the isolation of total Aβ. After neutralization, the samples were diluted and analyzed for Aβ40 and Aβ42 using commercially available kits (BIOSOURCE International). Each hemisphere was analyzed intriplicate and the mean values ±SEM reported. Western blot analyses were performed on all fractions using urea gels for Aβ species analyses. Aβ was detected using 6E10 (BIOSOURCE International) and Enhanced Chemiluminenscence (Amersham). Gliosis Quantitation. Five randomly selected, evenly spaced, sagittal sections were collected from paraformaldehyde-fixed and frozen hemispheres of treated and control mice. […]

The next data set concerns the target T1, Aβ42 (Homo sapiens, UniProt P05067).
T1 construct: analyzed for Aβ40 and Aβ42 using commercially available kits; from tissue; host or cells: TgCRND8 transgenic mice: hemi-brain (A3) and plasma (A5)
The data set is described as follows: Plasma Aβ42 levels. It counts as in vivo, mouse. Conditions: TgCRND8 mice, 28 days of therapy at five months of age. Here is the method: Mice. […] This initial dosage was chosen based upon the dosage of myo-cyclohexanehexyl (6-18 grams/day/adult or 86-257 mg/Kg/day) that is typically administered to human patients for various psychiatric disorders. […] A cohort of animals (n=10 mice per treatment arm) entered the study at five months of age, and outcomes were then analyzed after one month of treatment. The body weight, coat characteristics and in cage behaviour were monitored. Mannitol was used as a negative control for potential alterations in caloric intake. All experiments were performed according to the Canadian Council on Animal Care guidelines. Behavioural tests: Morris Water Maze testing was performed as previously described. […] Duration of walking, pausing and grooming were analyzed as indices of spontaneous locomotor activity. […] Latency to fall was recorded in four daily trials, conducted at 30 min intervals. […] Amyloid plaque burden was assessed with Leco IA-3001 image analysis software interfaced with Leica microscope and Hitachi KP-M1U CCD video camera. […] Vascular amyloid burden was defined as amyloid originating from or surrounding blood vessels and was analysed similarly. […] After neutralization, the samples were diluted and analyzed for Aβ40 and Aβ42 using commercially available kits (BIOSOURCE International). Each hemisphere was analyzed intriplicate and the mean values ±SEM reported. […] Gliosis Quantitation. […]

In data set [2] the test system is TgCRND8 mice. Nature of the data set: Cerebral amyloid plaque burden (anti-Aβ immunostaining, image analysis). The class given is in vivo, mouse. As to the method: Mice. […] This initial dosage was chosen based upon the dosage of myo-cyclohexanehexyl (6-18 grams/day/adult or 86-257 mg/Kg/day) that is typically administered to human patients for various psychiatric disorders. […] A cohort of animals (n=10 mice per treatment arm) entered the study at five months of age, and outcomes were then analyzed after one month of treatment. The body weight, coat characteristics and in cage behaviour were monitored. Mannitol was used as a negative control for potential alterations in caloric intake. All experiments were performed according to the Canadian Council on Animal Care guidelines. Behavioural tests: Morris Water Maze testing was performed as previously described. After non-spatial pre-training, mice underwent place discrimination training for 5 days with 4-trials per day, followed by a cued visible platform to rule out general motivational, learning deficits and motor problems, and a probe trial to evaluate memory. […] Open field test for motor activity was preformed as described previously. Duration of walking, pausing and grooming were analyzed as indices of spontaneous locomotor activity. Sensorimotor function was examined with an Economex™ accelerating rotarod (Columbus Instruments, Columbus, Ohio), as described elsewhere. The rod was set to accelerate at a rate of 0.2 r.p.m./s, from an initial, constant speed of 5 r.p.m. Latency to fall was recorded in four daily trials, conducted at 30 min intervals. All mice were trained for seven days before testing. The test day performance score for each animal was obtained by summing its latency to fall over the four trials. Cerebral amyloid burden. Brains were removed and one hemisphere was fixed in 4% paraformaldehyde and embedded in paraffin wax in the mid sagittal plane. To generate sets of systematic uniform random sections, 5 μm serial sections were collected across the entire hemisphere. Sets of sections at 50 μm intervals were used for analyses (10-14 sections/set). Plaques were identified after antigen retrieval with formic acid, and incubation with primary anti-AD antibody (Dako M-0872), followed by secondary antibody (Dako StreptABCcomplex/horseradish kit). End products were visualized with DAB and were counter-stained with luxol fast blue. Amyloid plaque burden was assessed with Leco IA-3001 image analysis software interfaced with Leica microscope and Hitachi KP-M1U CCD video camera. Openlab imaging software (Improvision, Lexington, Mass.) was then used to convert micrographs to binary images for plaque number and plaque area determinations. Vascular amyloid burden was defined as amyloid originating from or surrounding blood vessels and was analysed similarly. Plasma and Cerebral Aβ Content. Hemi-brain samples were homogenized in a buffered sucrose solution, followed by either 0.4% diethylamine/100 mM NaCl for soluble Aβ levels or cold formic acid for the isolation of total Aβ. After neutralization, the samples were diluted and analyzed for Aβ40 and Aβ42 using commercially available kits (BIOSOURCE International). Each hemisphere was analyzed intriplicate and the mean values ±SEM reported. Western blot analyses were performed on all fractions using urea gels for Aβ species analyses. Aβ was detected using 6E10 (BIOSOURCE International) and Enhanced Chemiluminenscence (Amersham). Gliosis Quantitation. Five randomly selected, evenly spaced, sagittal sections were collected from paraformaldehyde-fixed and frozen hemispheres of treated and control mice. Sections were immunolabelled for astrocytes with anti-rat GFAP IgG2a, (Dako; diluted 1:50) and for microglia with anti-rat CD68 IgG2b (Dako; 1:50).

In a further data set the test system is Aβ oligomers. The note with it: added pre-cond, positive control, previously shown; cited from earlier work.
In another data set the target is T2, Aβ (Homo sapiens, UniProt P05067).
T2 construct: Inositol stereoisomers stabilize an oligomeric aggregate of Alzheimer amyloid beta peptide
Conditions: cited from earlier work.

A short description of data set [3]: Pilot in vivo studies with myo-cyclohexanehexyl. The note with it: data not shown. From the text: The TgCRND8 mice and non-transgenic littermates were assigned to sex- and age-matched cohorts that were then used to test the effectiveness of the cyclohexanehexyl stereoisomers as a therapeutic (with treatment delayed until five months of age and continued for one month until six months of age). […] The endpoints were cognitive function, brain Aβ levels, and neuropathology. […] Over the course of these experiments, observers were unaware of genotype or treatment group.

The conditions of data set [4]: 6-18 grams/day/adult or 86-257 mg/Kg/day; cited from earlier work.
Where [5] appears, read: TgCRND8 mice, oral, 28 days from 5 months of age, 6 months of age, listed as Epi-cyclohexanehexol.

T1 sequence (P05067 672-713): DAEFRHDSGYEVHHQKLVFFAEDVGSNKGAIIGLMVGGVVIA
T2 sequence (P05067 672-713 limits assumed): as the sequence (P05067 672-713) above

On to `OC1C(O)C(O)C(O)C(O)C1O` (stereo not drawn) [epi-cyclohexanehexyl, 1,2,3,4,5/6-(epi-) cyclohexanehexyl, reference compound], for which, in the data set with TgCRND8 mice [1], the “spatial learning performance compared to non-Tg littermates” value was “significantly poorer than the performance of their non-Tg littermates; also recorded: remained impaired with respect to non-Tg littermates” and the “spatial learning performance compared to untreated TgCRND8 littermates” value was “not significantly different from that of untreated TgCRND8 littermates”. For the same compound, the “Plasma Aβ42 levels” value on Aβ42 came out at 1079 ± 79 pg/mL. In the data set on TgCRND8 mice [2] (TgCRND8 mice with pre-existing disease, 28 days), the “impact on brain Aβ40 or Aβ42 levels, percent area of the brain covered with plaques, or plaque number” value is given as “no significant impact”. Besides, in the data set with TgCRND8 mice [2] (setting [5]), the “Mean Plaque Size” value is recorded as 346 ± 6 μm^2, the “Total Plaque Area” value turned out to be 459706 ± 49966 μm^2 and the “Total Plaque Count” value amounted to 1342 ± 114.

Regarding `Oc1cccc(Nc2ccc(Nc3cccc(O)c3)nn2)c1` [RS0406], the “production of Aβ oligomers” value with Aβ oligomers was “reduces the production of oligomers”.

In the case of `O[C@H]1[C@H](O)[C@@H](O)[C@H](O)[C@@H](O)[C@H]1O` [myo-cyclohexanehexyl, 1,2,3,5/4,6-(myo-) cyclohexanehexyl], on Aβ, the “effectiveness in prior in vitro studies” value was “only weakly effective”. Also, the “benefit in pilot in vivo studies” value in data set [3] is “no significant benefit”. In addition, the “toxicity in humans or animals” value in data set [4] was “no toxicity”.

(Values after patent US20080306166A1, “Compositions and Methods For Treatment of Disorders of Protein Aggregation” (priority 2004, published 2008).)
